Test system: RA patients
Test: Total cholesterol determination, Study 1 (RA patients with inadequate response to methotrexate, add-on to MTX)
Type: in vivo, human
Conditions: for [total cholesterol] Mean CFB / [Total cholesterol] Median CFB: Study 1 24 weeks results; for [total cholesterol] Mean percentage CFB - 24 weeks results: continued 25 mg b.i.d (N = 69)
Experimental: Double-blind, placebo-controlled add on study in subjects with moderately to severely active RA who have an inadequate response to methotrexate (MTX) (oral or parenteral).
595 subjects randomized to one of 6 dose regimens of Compound 1 (dosed as a [Compound 1:HCl:3H2O]) (3 dose levels administered either once or twice daily) or placebo on top of each subject's stable dose of MTX.
Compound 1 (dosed as a [Compound 1:HCl:3H2O]) is dosed for twelve weeks once daily (q.d.) (50 mg, 100 mg or 200 mg) or twice daily (b.i.d.) (25 mg, 50 mg or 100 mg); or placebo.
At Week 12, the subjects on placebo who have not achieved 20% improvement in swollen joint count (SJC66) and tender joint count (TJC68) are re-randomized automatically to receive Compound 1 (dosed as a [Compound 1:HCl:3H2O]) either at 100 mg q.d. or 50 mg b.i.d. doses in a blinded fashion; subjects on 50 mg q.d. who have not achieved 20% improvement in SJC66 and TJC68 will be assigned to 100 mg q.d. and subjects on 25 mg b.i.d. that have not achieved a 20% improvement in SJC66 and TJC68 will be assigned to 50 mg b.i.d. Subjects who switch treatment at week 12 are handled as if they discontinued at week 12 for the purpose of statistical analysis, whereas subjects in the other groups will maintain their randomized treatment until Week 24.
This method is based on the determination of Δ^4 cholestenone after enzymatic cleavage of the cholesterol ester by cholesterol esterase, conversion of cholesterol by cholesterol oxidase, and subsequent measurement by the Trinder reaction of the hydrogen peroxide formed (Allain et al., 1974).
Cholesterol esters are cleaved by the action of cholesterol esterase to yield free cholesterol and fatty acids. Cholesterol oxidase then catalyzes the oxidation of cholesterol to cholest-4-en-3-one and hydrogen peroxide. In the presence of peroxidase, the hydrogen peroxide formed effects the oxidative coupling of phenol and 4-aminophenazone to form a red quinone-imine dye. The color intensity of the dye formed is directly proportional to the cholesterol concentration. It is determined by measuring the increase in absorbance.
Human serum and plasma samples cholesterol determination was done on a Roche/Hitachi Cobas c 701/702 system which automatically calculate the analyte concentration of each sample.

[1] = placebo switched to 50 mg b.i.d at week 12, week 16
[2] = placebo switched to 50 mg b.i.d at week 12, week 20
[3] = placebo switched to 50 mg b.i.d at week 12, week 24

SMILES: O=C(Nc1nc2cccc(-c3ccc(CN4CCS(=O)(=O)CC4)cc3)n2n1)C1CC1 [Compound 1, cyclopropanecarboxylic acid {5-[4-(1,1-dioxo-thiomorpholin-4-ylmethyl)-phenyl]-[1,2,4]triazolo[1,5-a]pyridin-2yl}-amide]
- [total cholesterol] Mean CFB (continued 100 mg b.i.d., week 2): 0.36 mmol/L
- [total cholesterol] Mean CFB (continued 100 mg b.i.d., week 4): 0.43 mmol/L
- [total cholesterol] Mean CFB (continued 100 mg b.i.d., week 8): 0.64 mmol/L
- [total cholesterol] Mean CFB (continued 100 mg b.i.d., week 12): 0.64 mmol/L
- [total cholesterol] Mean CFB (continued 100 mg b.i.d., week 16): 0.56 mmol/L
- [total cholesterol] Mean CFB (continued 100 mg b.i.d., week 20): 0.54 mmol/L
- [total cholesterol] Mean CFB (continued 100 mg b.i.d., week 24): 0.66 mmol/L
- [Total cholesterol] Median CFB (continued 100 mg q.d., week 1): 0.14 mmol/L
- [total cholesterol] Mean CFB (continued 100 mg q.d., week 1): 0.15 mmol/L
- [Total cholesterol] Median CFB (continued 100 mg q.d., week 2): 0.06 mmol/L
- [total cholesterol] Mean CFB (continued 100 mg q.d., week 2): 0.10 mmol/L
- [Total cholesterol] Median CFB (continued 100 mg q.d., week 4): 0.25 mmol/L
- [total cholesterol] Mean CFB (continued 100 mg q.d., week 4): 0.23 mmol/L
- [Total cholesterol] Median CFB (continued 100 mg q.d., week 8): 0.09 mmol/L
- [total cholesterol] Mean CFB (continued 100 mg q.d., week 8): 0.14 mmol/L
- [Total cholesterol] Median CFB (continued 100 mg q.d., week 12): 0.30 mmol/L
- [total cholesterol] Mean CFB (continued 100 mg q.d., week 12): 0.23 mmol/L
- [Total cholesterol] Median CFB (continued 100 mg q.d., week 16): 0.00 mmol/L
- [total cholesterol] Mean CFB (continued 100 mg q.d., week 16): 0.06 mmol/L
- [Total cholesterol] Median CFB (continued 100 mg q.d., week 20): 0.17 mmol/L
- [total cholesterol] Mean CFB (continued 100 mg q.d., week 20): 0.13 mmol/L
- [Total cholesterol] Median CFB (continued 100 mg q.d., week 24): 0.30 mmol/L
- [total cholesterol] Mean CFB (continued 100 mg q.d., week 24): 0.21 mmol/L
- [total cholesterol] Mean CFB (continued 200 mg q.d., week 1): 0.26 mmol/L
- [total cholesterol] Mean CFB (continued 200 mg q.d., week 2): 0.29 mmol/L
- [total cholesterol] Mean CFB (continued 200 mg q.d., week 4): 0.37 mmol/L
- [total cholesterol] Mean CFB (continued 200 mg q.d., week 8): 0.44 mmol/L
- [total cholesterol] Mean CFB (continued 200 mg q.d., week 12): 0.46 mmol/L
- [total cholesterol] Mean CFB (continued 200 mg q.d., week 16): 0.37 mmol/L
- [total cholesterol] Mean CFB (continued 200 mg q.d., week 20): 0.43 mmol/L
- [Total cholesterol] Median CFB (continued 200 mg q.d., week 24): 0.37 mmol/L
- [total cholesterol] Mean CFB (continued 200 mg q.d., week 24): 0.39 mmol/L
- [total cholesterol] Mean CFB (increased from 25 mg b.i.d. to 50 mg b.i.d at 12 weeks, week 1): -0.05 mmol/L
- [total cholesterol] Mean CFB (increased from 25 mg b.i.d. to 50 mg b.i.d at 12 weeks, week 2): -0.01 mmol/L
- [total cholesterol] Mean CFB (increased from 25 mg b.i.d. to 50 mg b.i.d at 12 weeks, week 4): -0.26 mmol/L
- [total cholesterol] Mean CFB (increased from 25 mg b.i.d. to 50 mg b.i.d at 12 weeks, week 8): -0.30 mmol/L
- [total cholesterol] Mean CFB (increased from 25 mg b.i.d. to 50 mg b.i.d at 12 weeks, week 12): -0.13 mmol/L
- [total cholesterol] Mean CFB (increased from 25 mg b.i.d. to 50 mg b.i.d at 12 weeks, week 16): 0.08 mmol/L
- [total cholesterol] Mean CFB (increased from 25 mg b.i.d. to 50 mg b.i.d at 12 weeks, week 20): -0.44 mmol/L
- [total cholesterol] Mean CFB (increased from 25 mg b.i.d. to 50 mg b.i.d at 12 weeks, week 24): -0.09 mmol/L
- [total cholesterol] Mean CFB (increased from 50 mg q.d. to 100 mg q.d. at 12 weeks, week 1): 0.05 mmol/L
- [total cholesterol] Mean CFB (increased from 50 mg q.d. to 100 mg q.d. at 12 weeks, week 2): 0.26 mmol/L
- [total cholesterol] Mean CFB (increased from 50 mg q.d. to 100 mg q.d. at 12 weeks, week 4): 0.11 mmol/L
- [total cholesterol] Mean CFB (increased from 50 mg q.d. to 100 mg q.d. at 12 weeks, week 8): 0.10 mmol/L
- [total cholesterol] Mean CFB (increased from 50 mg q.d. to 100 mg q.d. at 12 weeks, week 12): 0.10 mmol/L
- [total cholesterol] Mean CFB (increased from 50 mg q.d. to 100 mg q.d. at 12 weeks, week 16): 0.37 mmol/L
- [total cholesterol] Mean CFB (increased from 50 mg q.d. to 100 mg q.d. at 12 weeks, week 20): 0.34 mmol/L
- [total cholesterol] Mean CFB (increased from 50 mg q.d. to 100 mg q.d. at 12 weeks, week 24): 0.25 mmol/L
- [Total cholesterol] Median CFB [1]: 0.25 mmol/L
- [total cholesterol] Mean CFB [1]: 0.08 mmol/L
- [Total cholesterol] Median CFB [2]: 0.25 mmol/L
- [total cholesterol] Mean CFB [2]: 0.18 mmol/L
- [Total cholesterol] Median CFB [3]: 0.36 mmol/L
- [total cholesterol] Mean CFB [3]: 0.06 mmol/L
- [total cholesterol] Mean CFB (placebo switched to 100 mg q.d. at week 12, week 16): -0.16 mmol/L
- [total cholesterol] Mean CFB (placebo switched to 100 mg q.d. at week 12, week 20): -0.17 mmol/L
- [total cholesterol] Mean CFB (placebo switched to 100 mg q.d. at week 12, week 24): -0.26 mmol/L
- [total cholesterol] Mean percentage CFB - 24 weeks results (week 1): 2.56%
- [total cholesterol] Mean percentage CFB - 24 weeks results (week 2): 3.22%
- [total cholesterol] Mean percentage CFB - 24 weeks results (week 4): 4.05%
- [total cholesterol] Mean percentage CFB - 24 weeks results (week 8): 4.25%
